# Experimental data reported in PubChem BioAssay (NCI).
#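 Dose response: 5 concentrations. Exposure: 48 h. Format: 96-well plates. Endpoint: linear interpolation; highest concentration if not reached. GI50 is the concentration that inhibits growth by half. At the TGI there is no net growth.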
# How the values were obtained:
# Test in all cases: growth of human tumour cells (NCI), 48 h
# [1] = test system: BT-549 breast
# [2] = test system: DU-145 prostate
# [3] = test system: HL-60(TB) leukemia
# [4] = test system: HS 578T breast
# [5] = test system: K-562 leukemia
# [6] = test system: MDA-MB-231 breast
# [7] = test system: NCI-H226 lung
# [8] = test system: RPMI-8226 leukemia
# [9] = test system: SN12C renal
# [10] = test system: UO-31 renal
SMILES,GI50 [1] [µM],TGI [1] [µM],GI50 [2] [µM],TGI [2] [µM],GI50 [3] [µM],TGI [3] [µM],GI50 [4] [µM],TGI [4] [µM],GI50 [5] [µM],TGI [5] [µM],GI50 [6] [µM],TGI [6] [µM],GI50 [7] [µM],TGI [7] [µM],GI50 [8] [µM],TGI [8] [µM],GI50 [9] [µM],TGI [9] [µM],GI50 [10] [µM],TGI [10] [µM]
CCCC1=C(C(=O)OCC)C(c2ccccc2OC)C(C#N)=C(N)O1 (stereo unspecified),62.9,> 100,29.3,> 100,33.7,> 100,> 100,> 100,31.9,> 100,22.4,57.6,22.5,58.2,13.3,32.2,16.6,41.4,37.5,> 100
CC(=O)N1CC(=O)NC1=S,–,–,–,–,–,> 100,–,–,–,> 100,–,–,–,> 100,–,> 100,–,> 100,–,> 100
Nc1cccc2c1C1=NNC(=O)CC1C2 (stereo unspecified),–,–,–,–,–,> 100,–,–,–,> 100,–,–,–,> 100,–,> 100,–,> 100,–,> 100
C[C@H](N[C@H]1CCC[C@]1(O)C#Cc1ccc2c(c1)OCO2)c1ccccc1,–,–,–,> 25,–,> 25,–,> 25,–,> 25,–,> 25,–,> 25,–,16.9,–,–,–,> 25
COc1cc2c(cc1OC)C1Cc3cc(OC)c(OC)cc3C(C2)O1,–,> 100,–,> 100,–,–,–,–,–,> 100,–,> 100,–,> 100,–,> 100,–,> 100,–,> 100
COc1cc(NC(=O)CSc2nc3ccccc3c(=O)n2CCc2ccccc2)cc(OC)c1OC,3.22,9.47,4.98,> 100,> 100,> 100,3.52,> 100,–,–,1.47,3.71,2.14,7.16,–,–,–,–,–,–
CNS(=O)(=O)c1ccc2[nH]c(O)c(C3=Nc4ccccc4C3=O)c2c1,–,> 100,–,> 100,–,> 100,–,> 100,–,> 100,–,> 100,–,> 100,–,> 100,–,> 100,–,> 100
Cc1ccc2ccc3ccc(C)nc3c2n1,–,> 100,–,> 100,–,> 100,–,> 100,–,> 100,–,> 100,–,> 100,–,> 100,–,> 100,–,> 100
CCOC(=O)C(=O)Nc1c(CC)cccc1C(C)CC (stereo unspecified),–,–,–,–,–,> 100,–,–,–,> 100,–,–,–,> 100,–,> 100,–,> 100,–,> 100
NC(=O)Nc1ccc(C(=O)NCCCNC(=O)c2ccc(NC(N)=O)cc2)cc1,–,> 100,–,> 100,–,> 100,–,> 100,–,> 100,–,–,–,> 100,–,> 100,–,–,–,> 100
O=C(NCCNc1nccc(-c2c(-c3cccc(O)c3)nc3sccn23)n1)Nc1cccc(C(F)(F)F)c1,–,–,5.37,30,2.85,6.03,3.56,17.8,3.42,57.1,3.52,12.3,9.99,28.5,2.52,5.46,3.42,20,3.25,16.8
C=Cc1cc(OC)c2c(c1)c(=O)oc1c2cc(OC)c2c(O)ccc(C3OC(C)C(O)C(C)(O)C3O)c21 (stereo unspecified),–,0.00758,–,0.00897,–,0.0256,–,0.00683,0.00037,0.947,–,–,–,–,0.000432,–,0.00149,–,0.00184,–
